In brackets after ≈: the same amount, converted by molar mass.

Assay type in all cases: cell-based
In one experiment the test system is fresh morning saliva. Description: In-vitro test to reduce bad breath (liquid medium inoculated with fresh morning saliva, sniffed by a panel). How it is done: In-Vitro Test to Reduce Bad Breath
The test is based on the work of Goldberg and Rosenberg (Production of Oral Malodor in an in vitro System, S. Goldberg and M. Rosenberg, pp.143 -150, in: Bad Breath—A multidisciplinary Approach, Eds: D. van Steenberghe, M. Rosenberg, Leuven University Press, 1996) and has been adapted to improve reproducibility.
A sterile liquid medium inoculated with fresh morning saliva is incubated for a few days at 37° C. and then sniffed by a panel of testers.
An intensive odour characteristic of bad breath has formed. Uninoculated controls have only a faint odour of the medium.
As a control for the tests, Triclosan® (5-chloro-2-(2,4-dichlorophenoxy)phenol) was added to inoculated samples in a concentration of 0.05%.

A further experiment concerns Pseudomonas aruginosa. Put plainly: Further tests at 1000 ppm. The note with it: concentration of 1000 ppm.
The subject of experiment [1] is Escherichia coli. Description: Further tests at 1000 ppm. The conditions noted are these: concentration of 1000 ppm.
The subject of experiment [2] is total number of bacteria in the samples of saliva. Put plainly: Further test: total number of bacteria in samples of saliva. The note with it: concentration of 1000 ppm.
The test system of a further experiment is Pseudomonas aeruginosa. Description: Minimum inhibiting concentration, serial-dilution test. As for the experimental part:
(§1) Determination of the Minimum Inhibiting Concentration 5 The minimum inhibiting concentration (MIC) of beta-homocyclocitral was determined in a serial-dilution test against various bacteria.

Experiment [3] concerns Escherichia coli. The description is as above. As for the experimental part: as §1
The next experiment concerns Prevotella intermedia. The description is as above. As for the experimental part: as §1
The next experiment has as its system Veilonella parvula. The description is as above. As for the experimental part: as §1
The next experiment has as its system Porphyromonas gingivalis. The description is as above. How it is done: as §1
A further experiment deals with Fusobacterium nucleatum. The experiment is described as above. As for the experimental part: as §1
A further experiment relates to Staphylococcus aureus. The description is as above. How it is done:
as §1

A further experiment relates to Streptococcus mutans. The experiment is described as above. As for the experimental part: as §1
The mark [4] stands for this setting: 0.05% added to inoculated samples at the start of the test, 37° C., a few days.

Regarding `Oc1cc(Cl)ccc1Oc1ccc(Cl)cc1Cl` [Triclosan®, 5-chloro-2-(2,4-dichlorophenoxy)phenol, reference compound], the “odour after the incubation period” value in the experiment with fresh morning saliva (setting [4]) was “same faint odour of medium as the uninoculated samples”.
As for `CC1=C(CC=O)C(C)(C)CCC1` [beta-homocyclocitral, 2,6,6-trimethyl-1-cyclohexene-1-acetaldehyde], the “reduction with regard to Pseudomonas aruginosa” value in the experiment on Pseudomonas aruginosa was “no significant reduction”. For the same compound, the “reduction with regard to Escherichia coli” value in the experiment on Escherichia coli [1] is recorded as “no significant reduction”. In addition, in [2], the “reduction of the total number of bacteria in samples of saliva” value is recorded as “no significant reduction”. Further, the “odour after the incubation period” value in the experiment on fresh morning saliva (0.01% added to inoculated samples) is listed as “a changed characteristic odour or a mixed odour was discernible in some cases”; with fresh morning saliva (0.025% added to inoculated samples), “no odour”; with fresh morning saliva (setting [4]), “a slight characteristic odour is discernible”. Besides, the “odour at sensory assessment” value in the experiment with fresh morning saliva (0.05% added to the inoculated medium just one hour before the sensory assessment) is “unpleasant mixed odour of bad breath and a faint beta-homocyclocitral note”. In addition, the minimum effective concentration in the experiment with fresh morning saliva (no odour after the incubation period) turned out to be 0.025%. In addition, the MIC (commonly the lowest concentration that inhibits growth of the organism) against Pseudomonas aeruginosa is > 1000 µg/mL; in the experiment on Escherichia coli [3], > 1000 µg/mL; against Prevotella intermedia (bactericidal), 250 µg/mL (≈ 1500 µM); against Prevotella intermedia (bacteriostatic), 125 µg/mL (≈ 752 µM); in the experiment on Veilonella parvula (bactericidal) it was 500 µg/mL (≈ 3010 µM); against Porphyromonas gingivalis, 125 µg/mL (≈ 752 µM). Besides, the MIC with Fusobacterium nucleatum (bactericidal) is 250 µg/mL (≈ 1500 µM); in the experiment with Staphylococcus aureus, 500 µg/mL (≈ 3010 µM); in the experiment with Streptococcus mutans (bactericidal), 500 µg/mL (≈ 3010 µM). For the same compound, the Type result with Pseudomonas aeruginosa is “No action up to 1000 ppm”; in the experiment on Escherichia coli [3], “No action up to 1000 ppm”; in the experiment with Veilonella parvula, “bactericidal action”; in the experiment with Fusobacterium nucleatum, “bactericidal action”; with Streptococcus mutans it was “bactericidal action”.

The values are drawn from US20080063610A1, “Use of Beta-Homocyclocitral as an Agent Against Bad Breath” (SYMRISE GMBH & CO. KG, priority 2004, published 2008).
